The subject of one assay is Botrytis cinerea. In kind it is cell-based. Further details: key to Plate antimicrobial activity test Botrytis cinerea, level: a case where hyphae extended to the entire well and no antimicrobial activity was found is defined as “level 0,”; a case where hyphae extended to less than a half of the well and thus the peptide inhibited the growth of the hyphae is defined as “level 1,”; a case where ungerminated spores were present and the peptide partially inhibited the germination is defined as “level 2,”; a case where all spores were ungerminated and the peptide completely inhibited the germination is defined as “level 3.”. Conditions: 25° C. for 1 day or 2 days, microscopic observation.

Assay [1] relates to Colletotrichum destructivum. In kind it is cell-based. Further details: key to Plate antimicrobial activity test Colletotrichum destructivum, level: a case where hyphae extended to the entire well and no antimicrobial activity was found is defined as “level 0,”; a case where hyphae extended to less than a half of the well and thus the peptide inhibited the growth of the hyphae is defined as “level 1,”; a case where ungerminated spores were present and the peptide partially inhibited the germination is defined as “level 2,”; a case where all spores were ungerminated and the peptide completely inhibited the germination is defined as “level 3.”. Conditions: 25° C. for 1 day or 2 days, microscopic observation.

In assay [2] the test system is Colletotrichum orbiculare. The assay is classed as cell-based. Conditions: 25° C. for 1 day or 2 days, microscopic observation. Further details: key to Plate antimicrobial activity test Colletotrichum orbiculare, level: a case where hyphae extended to the entire well and no antimicrobial activity was found is defined as “level 0,”; a case where hyphae extended to less than a half of the well and thus the peptide inhibited the growth of the hyphae is defined as “level 1,”; a case where ungerminated spores were present and the peptide partially inhibited the germination is defined as “level 2,”; a case where all spores were ungerminated and the peptide completely inhibited the germination is defined as “level 3.”.

Another assay concerns Fusarium oxysporum. The assay is classed as cell-based. Also on record: key to Plate antimicrobial activity test Fusarium oxysporum, level: a case where hyphae extended to the entire well and no antimicrobial activity was found is defined as “level 0,”; a case where hyphae extended to less than a half of the well and thus the peptide inhibited the growth of the hyphae is defined as “level 1,”; a case where ungerminated spores were present and the peptide partially inhibited the germination is defined as “level 2,”; a case where all spores were ungerminated and the peptide completely inhibited the germination is defined as “level 3.”.

A further assay has as its system Pyricularia oryzae. In kind it is cell-based. Also on record: key to Plate antimicrobial activity test Pyricularia oryzae, level: a case where hyphae extended to the entire well and no antimicrobial activity was found is defined as “level 0,”; a case where hyphae extended to less than a half of the well and thus the peptide inhibited the growth of the hyphae is defined as “level 1,”; a case where ungerminated spores were present and the peptide partially inhibited the germination is defined as “level 2,”; a case where all spores were ungerminated and the peptide completely inhibited the germination is defined as “level 3.”. The settings on record: 25° C. for 1 day or 2 days, microscopic observation.

In assay [3] the test system is Colletotrichum destructivum. The assay can be described thus: Colletotrichum destructivum leaf inoculation test (Chinese cabbage leaf). In kind it is in vivo. Conditions: peptide 100 μM; Chinese cabbage leaf, 25° C. for 4 days, lesions by visual inspection; symbols ◯/Δ/X not defined. The method, then: In the present example, a suspension comprising Colletotrichum destructivum and a peptide to be tested was dropped on a plant leaf, and lesions were then observed by visual inspection to evaluate the antimicrobial activity of the tested peptide. First, the pores of Colletotrichum destructivum were suspended in water to result in a spore concentration of 5×10^5 spores/ml, so as to prepare a water suspension of spores. Subsequently, a peptide to be tested (TsORF6-1) was added to the water suspension of spores, so that the final concentration of the peptide to be tested became 0 μM, 1 μM, 10 μM or 100 μM. Thereafter, 10 μl each of the water suspension of spores containing the peptide to be tested was dropped on the front side and the back side of the leaf of Chinese cabbage (variety name: “Kigokoro 85”). In this condition, incubation was carried out at 25° C. for 4 days. Thereafter, the front and back sides of the leaf were observed by visual inspection.

Assay [4] deals with plant pathogenic filamentous fungi. In kind it is cell-based. The settings on record: Table 3.

6 substances from patent US12396461B2, “Functional peptides having antimicrobial activity against phytopathogenic microorganisms” (TOYOTA JIDOSHA KABUSHIKI KAISHA, priority 2019, dated 2025) can be followed below.

Values joined by “and” are separate entries in the source; they are usually repeats but may differ in a detail not shown here. Identical values can stand only once. Like-named read-outs stand apart in the source and are kept apart here.

As for “KKVAK (listed as Solanum lycopersicum) [TsORF6-1-5aa-14, partial peptide of TsORF6-1, 5 amino acid residues]”, the “Plate antimicrobial activity test Botrytis cinerea, level” value with Botrytis cinerea (peptide 1 μM), in the assay on Botrytis cinerea (peptide 10 μM) and with Botrytis cinerea (peptide 100 μM) was 0 in each case. Besides, the “Plate antimicrobial activity test Colletotrichum destructivum, level” value in assay [1] (peptide 1 μM), in assay [1] (peptide 10 μM) and in assay [1] (peptide 100 μM) was 0 in each case. Further, the “Plate antimicrobial activity test Colletotrichum orbiculare, level” value in assay [2] (peptide 1 μM), in assay [2] (peptide 10 μM) and in assay [2] (peptide 100 μM) was 0 in each case. Also, in the assay with Fusarium oxysporum, the “Plate antimicrobial activity test Fusarium oxysporum, level” value is recorded as 0. The “Plate antimicrobial activity test Pyricularia oryzae, level” value with Pyricularia oryzae (peptide 1 μM), with Pyricularia oryzae (peptide 10 μM) and with Pyricularia oryzae (peptide 100 μM) was 0 each time. In addition, the “Leaf inoculation test Chinese cabbage/Colletotrichum destructivum” value in assay [3] is reported as “Δ”.

Take “KVAKM (listed as Solanum lycopersicum) [TsORF6-1-5aa-15, partial peptide of TsORF6-1, 5 amino acid residues]”: the “Plate antimicrobial activity test Botrytis cinerea, level” value in the assay on Botrytis cinerea (peptide 1 μM), in the assay on Botrytis cinerea (peptide 10 μM) and in the assay on Botrytis cinerea (peptide 100 μM) was 0 each time. The “Plate antimicrobial activity test Colletotrichum destructivum, level” value in assay [1] (peptide 1 μM), in assay [1] (peptide 10 μM) and in assay [1] (peptide 100 μM) was 0 in each case. In addition, the “Plate antimicrobial activity test Colletotrichum orbiculare, level” value in assay [2] (peptide 1 μM), in assay [2] (peptide 10 μM) and in assay [2] (peptide 100 μM) was 0 in each case. Moreover, in the assay on Fusarium oxysporum, the “Plate antimicrobial activity test Fusarium oxysporum, level” value amounted to 0. The “Plate antimicrobial activity test Pyricularia oryzae, level” value in the assay with Pyricularia oryzae (peptide 1 μM), with Pyricularia oryzae (peptide 10 μM) and in the assay with Pyricularia oryzae (peptide 100 μM) was 0 each time. The “Leaf inoculation test Chinese cabbage/Colletotrichum destructivum” value in assay [3] is given as “Δ”.

Consider “KVKNK (listed as Solanum lycopersicum) [TsORF6-1-5aa-10, partial peptide of TsORF6-1, 5 amino acid residues]”, for which the “Plate antimicrobial activity test Botrytis cinerea, level” value in the assay with Botrytis cinerea (peptide 1 μM), in the assay with Botrytis cinerea (peptide 10 μM) and in the assay on Botrytis cinerea (peptide 100 μM) was 0 each time. Also, the “Plate antimicrobial activity test Colletotrichum destructivum, level” value in assay [1] (peptide 1 μM), in assay [1] (peptide 10 μM) and in assay [1] (peptide 100 μM) was 0 in each case. In addition, the “Plate antimicrobial activity test Colletotrichum orbiculare, level” value in assay [2] (peptide 1 μM), in assay [2] (peptide 10 μM) and in assay [2] (peptide 100 μM) was 0 each time. In the assay with Fusarium oxysporum, the “Plate antimicrobial activity test Fusarium oxysporum, level” value was 0 and 1. The “Plate antimicrobial activity test Pyricularia oryzae, level” value in the assay on Pyricularia oryzae (peptide 1 μM), with Pyricularia oryzae (peptide 10 μM) and with Pyricularia oryzae (peptide 100 μM) was 0 in each case. In assay [3], the “Leaf inoculation test Chinese cabbage/Colletotrichum destructivum” value is “Δ”.

As to “KVMIV (listed as Solanum lycopersicum) [TsORF6-1-5aa-2, partial peptide of TsORF6-1, 5 amino acid residues]”, the entries for the “Plate antimicrobial activity test Botrytis cinerea, level” value in the assay with Botrytis cinerea (peptide 1 μM), in the assay on Botrytis cinerea (peptide 10 μM) and in the assay on Botrytis cinerea (peptide 100 μM) were 0, 0 and 1, respectively. For the same substance, the results for the “Plate antimicrobial activity test Colletotrichum destructivum, level” value in assay [1] (peptide 1 μM), in assay [1] (peptide 10 μM) and in assay [1] (peptide 100 μM) were 0, 0 and 1, respectively. Besides, the “Plate antimicrobial activity test Colletotrichum orbiculare, level” value in assay [2] (peptide 1 μM) stood at 0; in assay [2] (peptide 10 μM), 0; in assay [2] (peptide 100 μM), 1. Also, the “Plate antimicrobial activity test Fusarium oxysporum, level” value in the assay on Fusarium oxysporum turned out to be 0. Besides, the “Plate antimicrobial activity test Pyricularia oryzae, level” value in the assay with Pyricularia oryzae (peptide 1 μM), in the assay with Pyricularia oryzae (peptide 10 μM) and with Pyricularia oryzae (peptide 100 μM) was 0 each time. Also, the “Leaf inoculation test Chinese cabbage/Colletotrichum destructivum” value in assay [3] is reported as “◯”. Besides, in assay [4], the “germination inhibitory activity against plant pathogenic filamentous fungi, result in words” value is recorded as “extremely excellent germination inhibitory activity”.

“KVMIVVKT (listed as Solanum lycopersicum) [TsORF6-1-8aa-2, partial peptide of TsORF6-1, 8 amino acid residues]”: the results for the “Plate antimicrobial activity test Botrytis cinerea, level” value with Botrytis cinerea (peptide 1 μM), in the assay with Botrytis cinerea (peptide 10 μM) and with Botrytis cinerea (peptide 100 μM) were 0, 0 and 3, respectively. For the same substance, the “Plate antimicrobial activity test Colletotrichum destructivum, level” value in assay [1] (peptide 1 μM) was 0; in assay [1] (peptide 10 μM) it was 0; in assay [1] (peptide 100 μM), 2. Moreover, the “Plate antimicrobial activity test Colletotrichum orbiculare, level” value came out at 0 in assay [2] (peptide 1 μM), 0 in assay [2] (peptide 10 μM) and 2 in assay [2] (peptide 100 μM). Further, in the assay on Fusarium oxysporum, the “Plate antimicrobial activity test Fusarium oxysporum, level” value was 3 and 0. The “Plate antimicrobial activity test Pyricularia oryzae, level” value is 0 in the assay on Pyricularia oryzae (peptide 1 μM), 0 with Pyricularia oryzae (peptide 10 μM) and 2 in the assay on Pyricularia oryzae (peptide 100 μM). In assay [3], the “Leaf inoculation test Chinese cabbage/Colletotrichum destructivum” value was “◯”. The “germination inhibitory activity against plant pathogenic filamentous fungi, result in words” value in assay [4] is on record as “extremely excellent germination inhibitory activity”.

Turning to “VVKTKVKN (listed as Solanum lycopersicum) [TsORF6-1-8aa-6, partial peptide of TsORF6-1, 8 amino acid residues]”, the “Plate antimicrobial activity test Botrytis cinerea, level” value in the assay with Botrytis cinerea (peptide 1 μM), in the assay with Botrytis cinerea (peptide 10 μM) and in the assay on Botrytis cinerea (peptide 100 μM) was 0 throughout. Further, the “Plate antimicrobial activity test Colletotrichum destructivum, level” value in assay [1] (peptide 1 μM), in assay [1] (peptide 10 μM) and in assay [1] (peptide 100 μM) was 0 throughout. The “Plate antimicrobial activity test Colletotrichum orbiculare, level” value in assay [2] (peptide 1 μM), in assay [2] (peptide 10 μM) and in assay [2] (peptide 100 μM) was 0 in each case. Besides, the “Plate antimicrobial activity test Fusarium oxysporum, level” value in the assay with Fusarium oxysporum came to 0. Further, the “Plate antimicrobial activity test Pyricularia oryzae, level” value in the assay with Pyricularia oryzae (peptide 1 μM), with Pyricularia oryzae (peptide 10 μM) and with Pyricularia oryzae (peptide 100 μM) was 0 each time.
